PubChem BioAssay AID463101 (The Scripps Research Institute Molecular Screening Center, 2010)
Active and inactive are the calls of the source.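 The calls were made as follows: active = at 63 nM, GSTO1 inhibition of at least 80% or band labeling of at least 80% relative to 1 µM; inactive = the rest.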

Biological target: Glutathione S-transferase omega-1 (Homo sapiens) (UniProt P78417)
Experiment: alkyne analogs labeling GSTO1 in proteome, late-stage follow-up, mechanism study for GSTO1 inhibitor project, cell lysate, MDA-MB-435 proteome, click chemistry, set 2 (AID 463101)
Settings: MDA-MB-435 soluble proteome, gel ABPP fluorescence; for outcome / labeling: direct click chemistry labeling assay; for labeling: click chemistry direct labeling series, at 0.25 µM, stronger effect = higher value; for inhibition: in situ competitive ABPP, probe SE-Rh, at 1 µM (top of the series)

Glutathione S-transferase omega-1 (Homo sapiens), sequence (P78417 whole entry, looked up): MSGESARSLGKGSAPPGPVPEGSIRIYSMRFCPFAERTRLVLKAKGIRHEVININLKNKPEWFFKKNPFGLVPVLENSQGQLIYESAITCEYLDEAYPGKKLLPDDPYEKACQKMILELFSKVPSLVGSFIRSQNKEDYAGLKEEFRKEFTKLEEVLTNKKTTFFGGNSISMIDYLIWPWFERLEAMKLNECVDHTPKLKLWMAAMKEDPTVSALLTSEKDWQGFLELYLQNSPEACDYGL

Structure (SMILES)	outcome	labeling	inhibition
C#CCCC(=O)NCCCN(C(=O)CCl)c1ccc([N+](=O)[O-])cc1	inactive	77%	100% (inactive)
C#CCN(CCCN(C(=O)CCl)c1ccc([N+](=O)[O-])cc1)C(=O)C(F)(F)F	active	94%	100%
